Reference: US20260176289A1, “SMALL MOLECULE INHIBITORS OF KRAS PROTEINS” (Merck Sharp & Dohme LLC, priority 2022, published 2026)
Where two headings read alike, the source gives them in different places.

Legend:
SW620 cells = test: Cellular phospho-ERK assay, SW620 cells (homozygous KRAS-G12V); format: cell-based; settings: Homo sapiens, read-out: SW620 pERK IC50
Experimental: (§1) Procedure for Cellular Phospho-ERK Assay in KRAS Wild Type and Mutant (G12D, G12V) Cell Lines
(§2) MKN-1 cells (JCRB JCRB0252) containing amplified wild-type KRAS, were cultured in growth medium that contains RPMI 1640-GlutaMAX™-I (ThermoFisher Scientific 61870) containing 10% heat inactivated fetal bovine serum (ThermoFisher Scientific 10091148), 1 mM sodium pyruvate and 10 mM HEPES. PANC08.13 cells (ATCC® CRL-2551™), containing homozygous KRAS-G12D activating mutation, were cultured in growth medium made of RPMI1640-GlutaMAX™-I (ThermoFisher Scientific 61870) containing 15% heat inactivated fetal bovine serum (ThermoFisher Scientific 10091148)). AsPC-1 cells (ATCC® CRL-1682™), containing homozygous KRAS-G12D activating mutation, were cultured in T150 flask in growth medium (RPMI medium 1640-GlutaMAX™-I (ThermoFisher Scientific 61870) containing 10% fetal bovine serum (ThermoFisher Scientific 10091148)). SW620 cells (ATCC® […]), containing homozygous KRAS-G12V activating mutation, were cultured in growth medium that contains RPMI 1640-GlutaMAX™-I (ThermoFisher Scientific 61870) containing 10% heat inactivated fetal bovine serum (ThermoFisher Scientific 10091148).
(§3) Cells for the assay were harvested in growth medium after TrypLE (ThermoFisher scientific 12604021) digestion and were seeded in a 384-well collagen coated cell culture plate (Corning 356702) at a density of 10,000-15,000 cells/20 μL/well, and incubated at 37° C., 5% CO2 overnight. The compound (with 10 mM stock concentration) dose-response titrations were prepared [30 μM final ERK detection assay concentration and 1:3 dilutions, 10-point dose response] and appropriate amounts (270 nL) of test compounds were dispensed in a 384-well intermediate plate using an Echo 550 liquid handler. 30 μL/well of RPMI medium 1640-GlutaMAX™—I was added to the intermediate plate and the contents of the intermediate plate (10 μL/well) were then transferred to the 384-well collagen coated cell culture plate, which was incubated at 37° C., 5% CO2 for 2 hours. After removal of medium from the collagen coated cell culture plate, cells were lysed in lysis buffer from Alpha SureFire® Ultra™ Multiplex p-ERK and total ERK assay kit (PerkinElmer MPSU-PTERK) containing Halt™ Protease and Phosphatase inhibitor cocktail (ThermoFisher Scientific 78446) at room temperature with constant shaking at 300 rpm for 30 minutes. The cell lysates were then transferred to an OptiPlate-384 plate (PerkinElmer 6005620), and the phosphorylation of ERK (p-ERK) and total ERK levels were detected by Alpha SureFire® Ultra™ Multiplex p-EEK kit and total ERK assay kit (PerkinElmer MPSU-PTERK) following the manufacturer's protocol. Assay plates were read on a En Vision Multimode Plate Reader (PerkinElmer), and the ratio of p-ERK vs. total ERK in each well was used as the final readout. Dose response curves were analyzed using a 4-parameter logistic model to calculate IC50 values using Spotfire software.

AsPC-1 cells = test: Cellular phospho-ERK assay, AsPC-1 cells (homozygous KRAS-G12D); format: cell-based; settings: Homo sapiens, ASPC1, 2 h, read-out: AsPC1 pERK IC50
Method in brief: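 Readout: p-ERK/total ERK ratio measured by Alpha SureFire Ultra multiplex in lysates after 2 h compound exposure (37 °C, 5% CO2). Dosing ran 10 points, 1:3 dilutions, highest final concentration 30 μM. IC50 values derived by four-parameter logistic regression.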

KRAS-G12V = KRAS-G12V (Homo sapiens, UniProt P01116, G12V); test: SOS-catalyzed nucleotide exchange assay (Procedure A, TR-FRET), KRAS-G12V; format: biochemical; settings: nucleotide exchange, read-out: KRAS G12V GNE IC50
Method in brief: (§4)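 Signal ratio (520/495 nm, excitation 340 nm) reports Bodipy-GDP retention on biotinylated RAS after SOS-catalyzed exchange with 3 mM GTP. SOS was 40 nM, except 160 nM for G12V. Room-temperature exchange lasted 60 min (90 min for G12V), following a 60 min compound preincubation.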

MKN-1 cells = test: Cellular phospho-ERK assay, MKN-1 cells (amplified wild-type KRAS); format: cell-based; settings: Homo sapiens, read-out: MKN1 pERK IC50
Experimental: as §1, §2, §3

KRAS-G12D = KRAS-G12D (Homo sapiens, UniProt P01116, G12D); test: SOS-catalyzed nucleotide exchange assay (Procedure A, TR-FRET), KRAS-G12D; format: biochemical; settings: nucleotide exchange, read-out: KRAS G12D GNE IC50
Method in brief: as §4

KRAS-WT = KRAS-WT (Homo sapiens, UniProt P01116); test: SOS-catalyzed nucleotide exchange assay (Procedure A, TR-FRET), KRAS-WT; format: biochemical; settings: nucleotide exchange, read-out: KRAS WT GNE IC50
Method in brief: as §4

[1] = SW-620, 2 hours compound incubation
[2] = amplified wild-type KRAS, 2 hours

Sequence of KRAS-G12D (P01116 with tags, fused parts or gaps isoform P01116-2 G12D): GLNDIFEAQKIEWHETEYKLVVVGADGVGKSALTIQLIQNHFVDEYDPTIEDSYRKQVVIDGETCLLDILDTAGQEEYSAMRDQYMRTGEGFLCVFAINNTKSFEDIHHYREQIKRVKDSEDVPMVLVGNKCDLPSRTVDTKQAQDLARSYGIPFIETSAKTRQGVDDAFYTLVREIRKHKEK
Sequence of KRAS-WT (P01116 with tags, fused parts or gaps isoform P01116-2): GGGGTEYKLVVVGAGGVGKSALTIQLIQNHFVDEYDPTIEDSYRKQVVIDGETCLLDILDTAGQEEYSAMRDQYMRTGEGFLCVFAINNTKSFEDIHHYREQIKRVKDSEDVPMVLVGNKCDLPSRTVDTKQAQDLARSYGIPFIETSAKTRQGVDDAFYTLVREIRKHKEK
Sequence of KRAS-G12V (P01116 with tags, fused parts or gaps isoform P01116-2 G12V): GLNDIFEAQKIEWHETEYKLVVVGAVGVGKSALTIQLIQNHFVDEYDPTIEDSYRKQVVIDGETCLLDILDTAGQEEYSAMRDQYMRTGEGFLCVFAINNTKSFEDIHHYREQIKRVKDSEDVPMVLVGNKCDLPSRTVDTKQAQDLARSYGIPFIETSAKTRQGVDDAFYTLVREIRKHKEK

Compound	IC50 (SW620 cells; [1])	IC50 (AsPC-1 cells; 2 hours compound incubation)	IC50 (MKN-1 cells; 2 hours compound incubation)	IC50 (KRAS-G12V)	IC50 (KRAS-G12D)	IC50 (KRAS-WT)	IC50 (SW620 cells; SW-620, KRAS-G12V, 2 hours)	IC50 (AsPC-1 cells; KRAS-G12D, 2 hours)	IC50 (MKN-1 cells; [2])
Cc1cc2[nH]ncc2c(-c2nccc3c2sc2nc(OC[C@@]45CCCN4C[C@H](F)C5)nc(N4CCOCC5(CCCO5)C4)c23)c1C(F)(F)F (stereo partly drawn) [Ex-197, 10-(2-(((2R,7aS)-2-fluoro-tetrahydro-1H-pyrrolizin-7a(5H)-yl)methoxy)-8-(6-methyl-5-(trifluorometh-yl)-1H-indazol-4-yl)pyrido [4′,3′:4,5]thieno[2,3-d]pyrimidin-4-yl)-1,7-dioxa-10-azaspiro[4.6]undecane]	459 nM	393 nM	513 nM	186 nM	200 nM	432 nM			
C=C1CCCc2cc3[nH]ncc3c(-c3nccc4c3sc3nc(OC[C@@]56CCCN5C[C@H](F)C6)nc(N5CCOC[C@@](C)(O)C5)c34)c21 [Ex-115, (6S)-4-(2-(((2R,7aS)-2-fluorotetrahydro-1H-pyrrolizin-7a(5H)-yl)methoxy)-8-(5-methylene-5,6,7,8-tetrahydro-1H-benzo[f]indazol-4-yl)pyrido[4′,3′:4,5]thieno [2,3-d]pyrimidin-4-yl)-6-methyl-1,4-oxazepan-6-ol]				13.2 nM	3.98 nM	10.8 nM	18.9 nM	46.6 nM	24.6 nM
Cc1cc2[nH]ncc2c(-c2nccc3c2sc2nc(OC[C@@]45CCCN4C[C@H](F)C5)nc(N4CCOC[C@@](C)(O)C4)c23)c1[C@@H]1C[C@H]1C (atropisomer, axis not shown; (aS)) [Ex-67, (S)-4-((R)-2-(((2R,7aS)-2-fluorotetrahydro-1H-pyrrolizin-7a(5H)-yl)methoxy)-8-(6-methyl-5-((1R,2R)-2-methylcyclopropyl)-1H-indazol-4-yl)pyrido[4′,3′:4,5]thieno [2,3-d]pyrimidin-4-yl)-6-methyl-1,4-oxazepan-6-o1]				23.1 nM	11.9 nM	40 nM	323 nM	113 nM	186 nM
C[C@@H]1CCCc2cc3[nH]ncc3c(-c3nccc4c3sc3nc(OC[C@@]56CCCN5C[C@H](F)C6)nc(N5CCOC[C@@](C)(O)C5)c34)c21 [Ex-116]				17.9 nM	4.87 nM	9.84 nM	36.4 nM	56.6 nM	46.4 nM
CCc1cc2[nH]ncc2c(-c2nccc3c2sc2nc(OC[C@@]45CCCN4C[C@H](F)C5)nc(N4CCOC[C@@](C)(O)C4)c23)c1C1CC1 [Ex-48, (6S)-4-(8-(5-cyclopropyl-6-ethyl-1H-indazol-4-yl)-2-(((2R,7aS)-2-fluorotetrahydro-1H-pyrrolizin-7a(5H)-yl)methoxy)pyrido[4′,3′:4,5]thi-eno[2,3-d]pyrimidin-4-yl)-6-methyl-1,4-oxazepan-6-ol]				28.5 nM	18.2 nM	50.4 nM	106 nM	153 nM	123 nM
Cc1c(C(F)(F)F)c(-c2nccc3c2sc2nc(OC[C@@]45CCCN4C[C@H](F)C5)nc(N4CCOC[C@@](C)(O)C4)c23)c2cn[nH]c2c1F [Ex-44, (6S)-4-(8-(7-fluoro-6-methyl-5-(trifluoromethyl)-1H-indazol-4-yl)-2-(((2R,7aS)-2-fluorotetrahydro-1H-pyrrolizin-7a(5H)-yl)methoxy)pyrido[4′,3′:4,5]thi-eno[2,3-d]pyrimidin-4-yl)-6-methyl-1,4-oxazepan-6-ol]				242 nM	141 nM	281 nM	281 nM	452 nM	373 nM
CN1CCC[C@@]2(COc3nc(N4CCOC[C@@](C)(O)C4)c4c(n3)sc3c(-c5c(C6CC6)c(Cl)cc6[nH]ncc56)nccc34)CCC[C@@H]12 [Ex-217, (6S)-4-(8-(6-chloro-5-cyclopropyl-1H-indazol-4-yl)-2-(((4aS,7aR)-1-meth-yloctahydro-4aH-cyclopenta[b]pyridin-4a-yl)meth-oxy)pyrido[4′,3′:4,5]thieno[2,3-d]pyrimi-din-4-yl)-6-methyl-1,4-oxazepan-6-ol]	10.9 nM	47.7 nM	46.9 nM	13.1 nM	3.46 nM	8.85 nM			

Continued, in another order:

IC50 (SW620 cells; [1])	IC50 (AsPC-1 cells; 2 hours compound incubation)	IC50 (MKN-1 cells; 2 hours compound incubation)	Compound	IC50 (KRAS-G12V)	IC50 (KRAS-G12D)	IC50 (KRAS-WT)	IC50 (SW620 cells; SW-620, KRAS-G12V, 2 hours)	IC50 (AsPC-1 cells; KRAS-G12D, 2 hours)	IC50 (MKN-1 cells; [2])
14.5 nM	24 nM	44.4 nM	CN(C)C[C@@]1(COc2nc(N3CCOC[C@@](C)(O)C3)c3c(n2)sc2c(-c4c(C5(F)CC5)c(Cl)cc5[nH]ncc45)nccc23)CC1(F)F [Ex-132, (6S)-4-(8-(6-chloro-5-(1-fluorocyclo-propyl)-1H-indazol-4-yl)-2-(((R)-1-((dimethylamino)-methyl)-2,2-di-fluorocyclopropyl)-methoxy)pyrido [4′,3′:4,5]thieno[2,3-d]pyrimidin-4-yl)-6-methyl-1,4-oxaze-pan-6-ol]	13.9 nM	5.45 nM	15.7 nM			
117 nM	188 nM	84.2 nM	CC1(F)CCN(C[C@@]2(COc3nc(N4CCOC[C@@](C)(O)C4)c4c(n3)sc3c(-c5c(C6(F)CC6)c(Cl)cc6[nH]ncc56)nccc34)CC2(F)F)CC1 [Ex-232, (6S)-4-(8-(6-chloro-5-(1-fluorocyclopropyl)-1H-indazol-4-yl)-2-(((R)-2,2-difluoro-1-((4-fluoro-4-methylpiperidin-1-yl)methyl)cyclopropyl)metho-xy)pyrido[4′,3′:4,5]thieno[2,3-d]pyrimidin-4-yl)-6-methyl-1,4-oxazepan-6-ol]	197 nM	104 nM	762 nM			
84.5 nM	182 nM	90.1 nM	CN(C)C1COC2C[C@@]21COc1nc(N2CCOC[C@@](C)(O)C2)c2c(n1)sc1c(-c3c(C4(F)CC4)c(Cl)cc4[nH]ncc34)nccc12 (stereo partly drawn) [Ex-269, (6S)-4-(8-(6-chloro-5-(1-fluorocyclopropyl)-1H-indazol-4-yl)-2-((4-(dimethylamino)-2-oxabicyclo[3.1.0]hexan-5-yl)methoxy)pyri-do[4′,3′:4,5]thi-eno[2,3-d]pyrimidin-4-yl)-6-methyl-1,4-oxazepan-6-ol]	20 nM	8.13 nM	24.9 nM			
